Test results from patent US20070213408A1, “Use of Acetyl L-Carnitine for the Preparation of a Medicine for the Treatment of Neuropathic Pain in Diabetic Patients” (SIGMA-TAU INDUSTRIE FARMACEUTICHE RIUNITE S.P.A., priority 2004, published 2007).

Assays:
[1] = test system: Patients with type 2 diabetes on insulin treatment; test: Double-blind placebo-controlled clinical trials in diabetic peripheral neuropathy, VAS pain assessment, patients on insulin; format: in vivo, human; conditions: 52 weeks
Method: (§1) Two double-blind placebo-controlled clinical trials, identical in their experimental design, were conducted in patients with diagnoses of diabetic peripheral neuropathy selected according to the criteria established in the San Antonio, Tex. conference (Diabetes 37:1000-1004, 1988).
(§2) Acetyl L-carnitine was administered orally at doses of 1.5 g/day and 3.0 g/day for continuously for 52 weeks.
(§3) One objective of the studies consisted in the possible modification of the Visual Analogue Scale (VAS) (Scott J. Huskisson EC. Graphic representation of pain. Pain 1976;2:175-184) in the subjective assessment of pain symptoms and the main sensorimotor clinical parameters.
The second population comprised patients with type 2 diabetes treated with insulin. Here, too, the population included a placebo group (Group 4) matching up to the same inclusion criteria as the patients treated with acetyl L-carnitine (on insulin treatment).

[2] = test system: patients with diabetic neuropathy; conditions: 120 patients with diabetic neuropathy; cited from earlier work
[3] = test system: Patients with type 2 diabetes not on insulin treatment; test: Double-blind placebo-controlled clinical trials in diabetic peripheral neuropathy, VAS pain assessment, patients not on insulin; format: in vivo, human; conditions: for VAS: 52 weeks
Method: as §1, §2, §3

[4] = test system: type I and II diabetics with symmetrical distal polyneuropathy or multineuropathy; conditions: treated patients out of 333 recruited; cited from earlier work
[5] = test system: patients with diabetic neuropathy; conditions: approximately 200 patients with diabetic neuropathy; cited from earlier work

## CC(=O)O[C@H](CC(=O)[O-])C[N+](C)(C)C [Acetyl L-carnitine, acetyl L-carnitine]
[1]; 1.5 g/die orally, n = 41 pts
  VAS: 16.8 ± 30.1
[1]; 3.0 g/day orally, n = 57 pts
  VAS: 25.9 ± 31.2
[2]
  improvement in symptoms: distinct improvement in symptoms
[3]; 1.5 g/day orally, n = 39 pts
  VAS: 7.6 ± 34.7
[3]; 3.0 g/day orally, n = 40 pts
  VAS: 24.2 ± 32.3
[3]; end of treatment, active only at higher dose (3 g/day)
  activity compared to the placebo group: active in a dose-related manner
[4]
  patients presenting an improvement in pain symptoms: 39%
[5]
  difference between acetyl L-carnitine and placebo: failed to show any significant difference
